This is an account of results in patent US10335370B2, “Controlled release composition” (priority 2008, dated 2019).

Format in all cases: in vivo
The test system of one test is SGC-7901 tumor. Briefly: Tumor growth inhibition, SGC-7901 tumor in nude mice. The settings on record: 1.6 mg ip, four injections; 21st day after inoculation. The method, then:
Fluorouracil implant prepared according to Example 2 were used in this study. SGC-7901 tumor tissues at vigorous growth stage were obtained and cut into pieces of about 1.5 mm^3. The tumor tissue pieces were inoculated subcutaneously to the right armpit of nude mice, under sterile conditions. The mice were randomized into 6 groups at the sixth day after inoculation. Three groups were treated with different doses of fluorouracil implant prepared according to Example 2. Another group was treated with excipient at the sixth day after noculation. The fluorouracil implant or excipient was implanted subcutaneously near the tumor. The positive group received four intraperitoneal injections of fluorouracil in total at an interval of twice a week. The negative control group received four intraperitoneal injections of normal saline in total at an interval of twice a week. The mice were sacrificed at the 21st day after inoculation, and the tumor mass were peeled and weighed. The tumor growth inhibition rate was calculated using the following equation: […]

In test [1] the test system is Pancreatic cancer cell line PC3. Nature of the test: Tumor size, pancreatic cancer PC3 in nude mice. As to conditions: Group B, i.v. 10 mg/kg. The method, then:
Fluorouracil implant composition prepared according to Example 2 was tested for its efficacy on pancreatic cancer. Pancreatic cancer cell line PC3 was cultured and inoculated subcutaneously to 70 nude mice at the right armpit at the dose of 2×10^6 cells per inoculation. Tumor grew to the size of about 4 mm×4 mm×4 mm 4 weeks after the implant. 60 nude mice having tumors of similar sizes were selected and randomized into 5 groups with 12 mice in each group: Group A was administered intravenously through the angular vein with normal saline at the dose of 0.1 ml per mice; Group B was administered intravenously through the angular vein with 0.1 ml fluorouracil solution in normal saline at the dose of 10 mg/kg; Group C was implanted with blank matrix; Group D was implanted with fluorouracil implant composition into the pancreatic tumor mass at the dose of 4 mg/kg; and Group E was implanted with fluorouracil implant composition into the pancreatic tumor mass at the dose of 1 mg/kg. The size of the tumor mass was measured before and after treatment.

For a further test, the system named is H22 tumor cell. Briefly: Tumor growth inhibition, H22 tumor in mice. The settings on record: 12 mg/kg i.p., four injections; 15th day after inoculation. The method, then: Cisplatin implant prepared according to Example 5 was used in this study. Ascites fluid was taken from d7 H22 passage mice under sterile conditions, and the ascites fluid was diluted with normal saline to prepare tumor cell suspension at a concentration of 1.0×10^7 cells/ml. Each mouse received a subcutaneous injection of 0.2 ml tumor cell suspension at the right armpit (number of inoculated cells: 2×10^6). The mice were randomized into 6 groups the next day after inoculation, cisplatin implant or excipient control was implanted near the tumor at the seventh day after inoculation. The positive control group received an intraperitoneal injection of cisplatin the next day after inoculation, and four injections in total at an interval of twice a week. The negative control group received an intraperitoneal injection of normal saline the next day after inoculation, and four injections in total at an interval of twice a week. The mice were sacrificed at the 15th day after inoculation, and the tumor mass were peeled and weighted. Tumor growth inhibition rate was calculated using the following equation: […]

On to `O=c1[nH]cc(F)c(=O)[nH]1` [fluorouracil], for which the “Tumor growth inhibition rate (%)” value in the test on SGC-7901 tumor was 75.76%. The “Tumor weight X ± SD” value in the test with SGC-7901 tumor turned out to be 0.71 ± 0.42 g. The tumor size in test [1] (3rd day) was 72.3 mm^3; in test [1] (6th day), 96.62 ± 20.5 mm^3; in test [1] (10th day) it was 107.3 ± 20.9 mm^3; in test [1] (14th day), 121.6 ± 14.3 mm^3; in test [1] (Before treatment), 61.5 ± 8.7 mm^3.
For `N.N.[Cl][Pt][Cl]` [cisplatin], in the test with H22 tumor cell, the “Tumor growth inhibition rate (%)” value came out at 19.68% and the “Tumor weight X ± SD” value amounted to 2.98 ± 1.14 g.
